These results are taken from US20230339878A1, “SLC26A3 INHIBITORS AND USE THEREOF” (THE REGENTS OF THE UNIVERSITY OF CALIFORNIA, priority 2018, published 2023).

For series [1], the system named is loperamide-treated wild-type mice. The experiment in a line: Loperamide-induced constipation model in wild-type mice. Format: in vivo. The method, then:
Female CD1 mice (age 8-10 weeks) were administered loperamide (0.3 mg/kg, intraperitoneally, Sigma-Aldrich) to produce constipation. Compound A1 (DRAinh-A250) (5 mg/kg, in saline containing vehicle (5% DMSO and 10% Kolliphor HS 15; Sigma-Aldrich)), tenapanor (5 mg/kg, in vehicle), both compounds (5 mg/kg each, in vehicle), or vehicle alone were administered by oral gavage 1 hour before loperamide. After loperamide injection, mice were placed individually in metabolic cages with ad libitum access to food and water. Stool samples were collected for 3 h, and total stool weight and number of fecal pellets were quantified. To measure stool water content, stool samples were dried at 80° C. for 24 h and water content was calculated as [wet weight-dry weight]/wet weight. Similar studies were done in cystic fibrosis (CF) mice (ΔF508 homozygous) lacking functional CFTR.
Constipation Model in MiceDRAinh-A260 and DRAinh-A270 were tested in a loperamide-induced constipation model in mice. Female CD1 mice (age 8-10 weeks) were administered loperamide (0.3 mg/kg, intraperitoneally, in 5% ethanol in PBS, 0.1 mg/mL final concentration) to produce constipation and vehicle in control mice. DRAinh-A260 (5 mg/kg, in saline with 5% DMSO and 10% Kolliphor HS 15) or DRAinh-A270 (1, 3 or 10 mg/kg, in PBS with 5% DMSO and 20% (2- hydroxypropyl)-β-cyclodextrin) or vehicle alone were administered by oral gavage 1 hour before loperamide (FIG. 11A). After loperamide injection, mice were placed individually in metabolic cages with free access to food and water. Stool samples were collected for 3 hours, and total stool weight and number of fecal pellets were quantified. To measure stool water content, stool samples were dried at 80° C. for 24 hours and water content was calculated as [wet weight-dry weight]/wet weight.

Series [2] is described as follows: Pharmacokinetics in mice, serum LC/MS. It is filed as in vivo. The conditions noted are these: for oral bioavailability / bioavailability: 5 mg/kg (A1, A260) or 10 mg/kg (A270), mice; for bioavailability: mouse, serum, po, n=3, read-out: oral bioavailability (mean±SEM). The method, then: Pharmacokinetics of the Compound A1(DRAinh-A250) and analogs (DRAinh-A260 and DRAinh-A270) was determined in mice. After single dose intraperitoneal or oral administration (5 mg/kg for Compound A1 and DRAinh-A260, 10 mg/kg for DRAinh-A270), blood samples were collected via retro-orbital puncture at different time points and serum was separated by centrifugation. Compound concentrations were measured in serum using LC/MS. FIGS. 10A, 10B, 10C show the respective serum concentration of Compound A1 (FIG. 10A), DRAinh-A260 (FIG. 10B) and DRAinh-A270 (FIG. 10C) after single oral or intraperitoneal administration at zero time (n=3 mice per compound per administration route). Compound A1 had predicted therapeutic levels for at least 24 hours after single dose oral or intraperitoneal administration. […] (mean±SEM): 53.9±6.5% for Compound A1, 16.4±6.6% for DRAinh-A260, and 39.3±3.5% for DRAinh-A270.

“Also recorded” adds a separate entry of the source.

A word on the bioavailability: it is dose-corrected exposure relative to a reference, in per cent. Take `Cc1c(CC(=O)O)c(=O)oc2c(C)c(OCc3cccc(Br)c3)ccc12` [Compound A1]: the “three-hour stool weight, number of pellets and stool water content” value in series [1] (5 mg/kg oral gavage 1 hour before loperamide, wild-type mice) is listed as “partially prevented; also recorded: comparably reduced signs of constipation; also recorded: reduces loperamide-induced constipation”. For the same compound, in series [2], the oral bioavailability is 54% and the bioavailability worked out at 53.9 ± 6.5%. Further, the “time with predicted therapeutic serum levels” value in series [2] (5 mg/kg single dose oral or intraperitoneal) is recorded as “at least 24 hours”.

Turning to `Cc1c(CC(=O)O)c(=O)oc2c(C)c(OCc3cccc(I)c3)ccc12` [DRAinh-A270], the “stool parameters / diarrhea in control mice” value in series [1] (10 mg/kg oral, mice not treated with loperamide) was “did not affect stool parameters or cause diarrhea”. For the same compound, the “stool weight, pellet number and water content, dose-dependence” value in series [1] (1, 3 or 10 mg/kg oral gavage 1 hour before loperamide) is “dose-dependence in normalizing stool weight and pellet number, and water content; also recorded: normalizes stool water content even at low doses”. In addition, in series [2], the oral bioavailability was found to be 39% and the bioavailability turned out to be 39.3 ± 3.5%. The “time with predicted therapeutic serum concentrations” value in series [2] (10 mg/kg single dose oral or intraperitoneal) is recorded as “for several days”.
